Patent US12606541B2, “PPARg modulators and methods of use” (Eisai R&D Management Co., Ltd., priority 2020, dated 2026)

Tests used:
His6-TEV-PPARγ-(234-505) = biological target: T1, His6-TEV-PPARγ-(234-505) (Homo sapiens, UniProt P37231); experiment: TR-FRET Assay to Measure Co-R Peptide Recruitment to PPARγ; assay type: biochemical; details: Co-R peptide (SMRT-ID2) recruitment; top final concentration 20 μM; read-out: TR-FRET i-Ag; AC50
T1 construct: The His6-TEV-PPARγ-(234-505) protein for assay was expressed and purified; TEV cleavage site (N); made in house
T1 sequence (P37231 234-505): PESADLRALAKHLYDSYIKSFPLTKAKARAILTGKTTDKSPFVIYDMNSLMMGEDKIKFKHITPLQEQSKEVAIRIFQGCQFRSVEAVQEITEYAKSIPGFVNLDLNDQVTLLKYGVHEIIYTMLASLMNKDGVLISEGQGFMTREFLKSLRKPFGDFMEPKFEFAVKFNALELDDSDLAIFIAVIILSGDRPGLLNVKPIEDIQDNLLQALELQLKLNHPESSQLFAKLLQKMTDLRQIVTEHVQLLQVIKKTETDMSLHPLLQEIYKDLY
Procedure, shortened: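 Corepressor recruitment is measured by adding terbium-labeled anti-His antibody and FITC SMRT-ID2 peptide, at 5 and 200 nM final, after a 20-minute room-temperature protein–compound incubation. After one further hour, signal is converted to percent response between DMSO and 500 nM T0070907 wells.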

UM-UC-9 engineered cells = experiment: Cell proliferation / short-term viability assay, CellTiter-Glo 144 h; assay type: cell-based, human; details: Homo sapiens, UM-UC-9, 144 h, read-out: CTGlo 144 h UMUC9.5, G150
Procedure, shortened: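 Viability read by CellTiter-Glo 2.0 luminescence at day 7 versus DMSO-vehicle wells and a T0 plate measured on day 0. Cells: UM-UC-9 engineered assay-ready stocks, 500 cells/well in high-glucose DMEM with 10% FBS, 37° C, 5% CO2.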

Compound | AC50 (His6-TEV-PPARγ-(234-505)) [nM] | IC50 (UM-UC-9 engineered cells) [nM]
COc1cc(-c2cc(C(=O)N3CC[C@H](C(=O)NCC45CC(C4)N(CC(C)(C)F)C5)CC34CC4)n[nH]2)c(F)cn1 [Example 440, (S)-4-(5-(5-fluoro-2-methoxypyridin-4-yl)-1H-pyrazole-3-carbonyl)-N-((2-(2-fluoro-2-methylpropyl)-2-azabicyclo[2.1.1]hexan-4-yl)methyl)-4-azaspiro[2.5]octane-7-carboxamide] | 410 | 927
COc1cc(-c2cc(C(=O)N3[C@@H]4CC[C@H]3C[C@H](C(=O)NC3CCC(N)(C(F)(F)F)CC3)C4)n[nH]2)c(F)cn1 (stereo partly drawn) [Example 441, (1R,3s,5S)—N-(4-amino-4-(trifluoromethyl)cyclohexyl)-8-(5-(5-fluoro-2-methoxypyridin-4-yl)-1H-pyrazole-3-carbonyl)-8-azabicyclo[3.2.1]octane-3-carboxamide] | 56.7 | 350
COc1cc(-c2cc(C(=O)N3CC[C@H](C(=O)NC45CC(C4)N(CC(C)(C)F)C5)CC34CC4)n[nH]2)c(F)cn1 [Example 442, (S)-4-(5-(5-fluoro-2-methoxypyridin-4-yl)-1H-pyrazole-3-carbonyl)-N-(2-(2-fluoro-2-methylpropyl)-2-azabicyclo[2.1.1]hexan-4-yl)-4-azaspiro[2.5]octane-7-carboxamide] | 399 | 583
COc1cc(-c2cc(C(=O)N3CC[C@H](C(=O)NCC45COC(C(F)(F)F)(C4)C5)CC34CC4)n[nH]2)c(F)cn1 [Example 443, (S)-4-(5-(5-fluoro-2-methoxypyridin-4-yl)-1H-pyrazole-3-carbonyl)-N-((1-(trifluoromethyl)-2-oxabicyclo[2.1.1]hexan-4-yl)methyl)-4-azaspiro[2.5]octane-7-carboxamide] | 21.4 | 40.3
COc1cc(-c2cc(C(=O)N3CCC(C(=O)N[C@H]4CC[C@@](O)(C(F)(F)F)CC4)CC34COC4)n[nH]2)c(F)cn1 (stereo partly drawn) [Example 444, 5-(5-(5-fluoro-2-methoxypyridin-4-yl)-1H-pyrazole-3-carbonyl)-N-((1r,4r)-4-hydroxy-4-(trifluoromethyl)cyclohexyl)-2-oxa-5-azaspiro[3.5]nonane-8-carboxamide] | 113 | > 10000
COc1cc(-c2cc(C(=O)N3CC[C@H](C(=O)NCc4ncc(OC5COC5)cc4Cl)CC34CC4)n[nH]2)c(F)cn1 [Example 446, (S)—N-((3-chloro-5-(oxetan-3-yloxy)pyridin-2-yl)methyl)-4-(5-(5-fluoro-2-methoxypyridin-4-yl)-1H-pyrazole-3-carbonyl)-4-azaspiro[2.5]octane-7-carboxamide] | 1.3 | 27.4
COc1cc(-c2cc(C(=O)N3CC[C@H](C(=O)NCc4ncc(N5CC(C)NC(C)C5)cn4)CC34CC4)n[nH]2)c(F)cn1 (stereo partly drawn) [Example 447, (7S)—N-((5-(3,5-dimethylpiperazin-1-yl)pyrimidin-2-yl)methyl)-4-(5-(5-fluoro-2-methoxypyridin-4-yl)-1H-pyrazole-3-carbonyl)-4-azaspiro[2.5]octane-7-carboxamide] | 508 | 3630
COc1cc(-c2cc(C(=O)N3CC[C@H](C(=O)NC4(C#N)CC4)CC34CC4)n[nH]2)c(F)cn1 [Example 448, (S)—N-(1-cyanocyclopropyl)-4-(5-(5-fluoro-2-methoxypyridin-4-yl)-1H-pyrazole-3-carbonyl)-4-azaspiro[2.5]octane-7-carboxamide] | 123 | 1640
COc1cnc(CNC(=O)[C@H]2CCN(C(=O)c3cc(-c4cc(OC)ncc4F)[nH]n3)C3(CC3)C2)nc1 [Example 455, (S)-4-(5-(5-fluoro-2-methoxypyridin-4-yl)-1H-pyrazole-3-carbonyl)-N-((5-methoxypyrimidin-2-yl)methyl)-4-azaspiro[2.5]octane-7-carboxamide] | 67.9 | 213
COc1cc(-c2cc(C(=O)N3CC[C@H](C(=O)NCc4ncc(C(F)(F)F)cn4)CC34CC4)n[nH]2)c(F)cn1 [Example 457, (S)-4-(5-(5-fluoro-2-methoxypyridin-4-yl)-1H-pyrazole-3-carbonyl)-N-((5-(trifluoromethyl)pyrimidin-2-yl)methyl)-4-azaspiro[2.5]octane-7-carboxamide] | 13.4 | 414
COc1cc(-c2cc(C(=O)N3CC[C@H](C(=O)NC4(c5ncc(Cl)cc5Cl)CC4)CC34CC4)n[nH]2)c(F)cn1 [Example 458, (S)—N-(1-(3,5-dichloropyridin-2-yl)cyclopropyl)-4-(5-(5-fluoro-2-methoxypyridin-4-yl)-1H-pyrazole-3-carbonyl)-4-azaspiro[2.5]octane-7-carboxamide] | 3.8 | 26.6
COc1cc(-c2cc(C(=O)N3CC[C@H](C(=O)NCC4(O)COC4)CC34CC4)[nH]n2)c(F)cn1 [Example 463, (S)-4-(3-(5-fluoro-2-methoxypyridin-4-yl)-1H-pyrazole-5-carbonyl)-N-((3-hydroxyoxetan-3-yl)methyl)-4-azaspiro[2.5]octane-7-carboxamide] | 180 | 5200
COc1cc(-c2cc(C(=O)N3CC[C@H](C(=O)NCc4nc(C)c(C)n4C)CC34CC4)n[nH]2)c(F)cn1 [Example 465, (S)-4-(5-(5-fluoro-2-methoxypyridin-4-yl)-1H-pyrazole-3-carbonyl)-N-((1,4,5-trimethyl-1H-imidazol-2-yl)methyl)-4-azaspiro[2.5]octane-7-carboxamide] | 88.6 | 842
COc1cc(-c2cc(C(=O)N3CC[C@H](C(=O)NC4CCNC4)CC34CC4)n[nH]2)c(F)cn1 (stereo partly drawn) [Example 471, (7S)-4-(5-(5-fluoro-2-methoxypyridin-4-yl)-1H-pyrazole-3-carbonyl)-N-(pyrrolidin-3-yl)-4-azaspiro[2.5]octane-7-carboxamide] | 62.6 | > 10000
COc1cc(-c2cc(C(=O)N3CC[C@H](C(=O)NCc4nc(C)nn4C(C)C)CC34CC4)n[nH]2)c(F)cn1 [Example 473, (S)-4-(5-(5-fluoro-2-methoxypyridin-4-yl)-1H-pyrazole-3-carbonyl)-N-((1-isopropyl-3-methyl-1H-1,2,4-triazol-5-yl)methyl)-4-azaspiro[2.5]octane-7-carboxamide] | 443 | 3390
COc1cc(-c2cc(C(=O)N3CC[C@H](C(=O)NCc4ncc(C(F)(F)F)[nH]4)CC34CC4)[nH]n2)c(F)cn1 [Example 476, (S)-4-(3-(5-fluoro-2-methoxypyridin-4-yl)-1H-pyrazole-5-carbonyl)-N-((5-(trifluoromethyl)-1H-imidazol-2-yl)methyl)-4-azaspiro[2.5]octane-7-carboxamide] | 17.4 | 406
CC(=O)c1cc(-c2cc(C(=O)N3CCC(C(=O)NCc4ncc(F)cc4Cl)CC34CC4)n[nH]2)c(F)cn1 (stereo not drawn) [Example 477, 4-(5-(2-acetyl-5-fluoropyridin-4-yl)-1H-pyrazole-3-carbonyl)-N-((3-chloro-5-fluoropyridin-2-yl)methyl)-4-azaspiro[2.5]octane-7-carboxamide] | 42.8 | 307
COc1cc(-c2cc(C(=O)N3CC[C@H](C(=O)NCc4nc(N5C[C@@H](C)N[C@@H](C)C5)oc4C(F)(F)F)CC34CC4)n[nH]2)c(F)cn1 [Example 482, (S)—N-((2-((3S,5R)-3,5-dimethylpiperazin-1-yl)-5-(trifluoromethyl)oxazol-4-yl)methyl)-4-(5-(5-fluoro-2-methoxypyridin-4-yl)-1H-pyrazole-3-carbonyl)-4-azaspiro[2.5]octane-7-carboxamide] | 29.5 | 270
COc1cc(-c2cc(C(=O)N3CC[C@H](C(=O)NCc4nc(N5C[C@@H](C)N(C)[C@@H](C)C5)oc4C(F)(F)F)CC34CC4)n[nH]2)c(F)cn1 [Example 485, (S)-4-(5-(5-fluoro-2-methoxypyridin-4-yl)-N-pyrazole-3-carbonyl)-N-((5-(trifluoromethyl)-2-((3S,5R)-3,4,5-trimethylpiperazin-1-yl)oxazol-4-yl)methyl)-4-azaspiro[2.5]octane-7-carboxamide] | 26.7 | 350
COc1cc(-c2cc(C(=O)N3CC[C@H](C(=O)Nc4cnn5ccc(C#N)nc45)CC34CC4)n[nH]2)c(F)cn1 [Example 487, (S)—N-(5-cyanopyrazolo[1,5-a]pyrimidin-3-yl)-4-(5-(5-fluoro-2-methoxypyridin-4-yl)-1H-pyrazole-3-carbonyl)-4-azaspiro[2.5]octane-7-carboxamide] | 0.7 | 2.4
COc1cc(-c2cc(C(=O)N3CC[C@H](C(=O)NC4CCN(c5ccc(C#N)nc5)C4)CC34CC4)n[nH]2)c(F)cn1 (stereo partly drawn) [Example 488, (7S)—N-(1-(6-cyanopyridin-3-yl)pyrrolidin-3-yl)-4-(5-(5-fluoro-2-methoxypyridin-4-yl)-1H-pyrazole-3-carbonyl)-4-azaspiro[2.5]octane-7-carboxamide] | 0.9 | 6.6
